Where two headings read alike, the source gives them in different places. Blank lines part the entries; values can stand above or below the compound they belong to.
Tests used:
Assay in all cases: two-electrode voltage clamp, X. laevis oocytes
Format in all cases: cell-based
[1] = molecular target: T1, NALCN WT channel complex (+UNC79, UNC80, and FAM155A) (Homo sapiens, UniProt Q8IZF0); conditions: buffer same
T1 construct: codon-optimised human cDNAs in modified pcDNA3.1(+); four mRNAs 1:1:1:1 co-injected in Xenopus laevis oocytes; 7SX3 is the human channelosome structure used for modelling; with Protein unc-79 homolog; Protein unc-80 homolog; NALCN channel auxiliary factor 1

[2] = molecular target: T1, NALCN WT channel complex (+UNC79, UNC80, and FAM155A)
[3] = molecular target: T2, NALCN WT channel complex (+UNC79, UNC80, and FAM155A) (Homo sapiens, UniProt Q8IZF0, L588A/M1145A/W311A/Y1436A)
T2 construct: codon-optimised human cDNAs in modified pcDNA3.1(+); four mRNAs 1:1:1:1 co-injected in Xenopus laevis oocytes; 7SX3 is the human channelosome structure used for modelling; with Protein unc-79 homolog; Protein unc-80 homolog; NALCN channel auxiliary factor 1

[4] = molecular target: T1, NALCN WT channel complex (+UNC79, UNC80, and FAM155A); conditions: buffer same; remark: listed apart in the source
[5] = molecular target: T3, NALCN WT channel complex (+UNC79, UNC80, and FAM155A) (Homo sapiens, UniProt Q8IZF0, M1145A); conditions: read-out: % inhibition at 300 μM (-100 mV)
T3 construct: codon-optimised human cDNAs in modified pcDNA3.1(+); four mRNAs 1:1:1:1 co-injected in Xenopus laevis oocytes; 7SX3 is the human channelosome structure used for modelling; with Protein unc-79 homolog; Protein unc-80 homolog; NALCN channel auxiliary factor 1

[6] = molecular target: T1, NALCN WT channel complex (+UNC79, UNC80, and FAM155A); conditions: inhibition of outward and inward currents, E/Z isomer mixture, buffer same
[7] = outward current inhibited, inward potentiated
[8] = read-out: % inhibition at 1 mM (+80 mV)
[9] = read-out: % inhibition at 1 mM (-100 mV)
[10] = outward inhibited more than inward current

SMILES: CCCNCC(O)COc1ccccc1C(=O)CCc1ccccc1 (centres unmarked) [propafenone]
% inhibition at 300 μM [1, 7]: three inhibited the outward and potentiated the inward currents (quinidine, diltiazem, and propafenone)

SMILES: C=C[C@H]1CN2CC[C@H]1C[C@@H]2[C@@H](O)c1ccnc2ccc(OC)cc12 [quinidine]
% inhibition at 300 μM [1, 7]: three inhibited the outward and potentiated the inward currents (quinidine, diltiazem, and propafenone)

SMILES: COc1ccccc1CN[C@H]1C2CCN(CC2)[C@H]1C(c1ccccc1)c1ccccc1 [CP96345]
% inhibition at 300 μM ([1]; inhibition of outward current): two selectively inhibited the outward (CP96345) or inward (lamotrigine) currents

inhibition at 1000 µM [2, 8]: 66.9 ± 4%
SMILES: c1ccc(B(OB(c2ccccc2)c2ccccc2)c2ccccc2)cc1 [DPBA, diphenylborinic anhydride]

inhibition at 1000 µM [3, 9]: 32.9 ± 12.9%
inhibition at 1000 µM [2, 9]: 70.2 ± 8.2%
SMILES: NCCOB(c1ccccc1)c1ccccc1 [2-APB, 2-aminoethoxydiphenyl borate]

SMILES: OCCOCCN1CCN(C(c2ccccc2)c2ccc(Cl)cc2)CC1 (centres unmarked) [hydroxyzine]
% inhibition at 1 mM [4, 10]: three (hydroxyzine, promethazine, and citalopram) had a stronger inhibitory effect on the outward

SMILES: COc1ccc([C@@H]2Sc3ccccc3N(CCN(C)C)C(=O)[C@@H]2OC(C)=O)cc1 [diltiazem]
% inhibition at 300 μM [1, 7]: three inhibited the outward and potentiated the inward currents (quinidine, diltiazem, and propafenone)

SMILES: O=C(O)COCCN1CCN(C(c2ccccc2)c2ccc(Cl)cc2)CC1 (centres unmarked) [cetirizine]
% inhibition at 1 mM ([4]; inhibition of outward and inward currents): two (cetirizine and (E/Z)-endoxifen) inhibited both outward and inward currents

inhibition at 300 µM ([3]; read-out: % inhibition at 300 μM (-100 mV)): 64.8 ± 6.7%
inhibition at 300 µM [5]: 31 ± 9.2%
SMILES: O=C1NC(=O)C(c2ccccc2)(c2ccccc2)N1 [phenytoin]

SMILES: CC(CN1c2ccccc2Sc2ccccc21)N(C)C (centres unmarked) [promethazine]
% inhibition at 1 mM [4, 10]: three (hydroxyzine, promethazine, and citalopram) had a stronger inhibitory effect on the outward

SMILES: CCC(=C(c1ccc(O)cc1)c1ccc(OCCNC)cc1)c1ccccc1 (mixture of isomers) [(E/Z)-endoxifen]
% inhibition at 100 μM [6]: two (cetirizine and (E/Z)-endoxifen) inhibited both outward and inward currents

SMILES: Nc1nnc(-c2cccc(Cl)c2Cl)c(N)n1 [lamotrigine]
% inhibition at 300 μM ([1]; inhibition of inward current): two selectively inhibited the outward (CP96345) or inward (lamotrigine) currents

SMILES: CN(C)CCCC1(c2ccc(F)cc2)OCc2cc(C#N)ccc21 (centres unmarked) [citalopram]
% inhibition at 1 mM [4, 10]: three (hydroxyzine, promethazine, and citalopram) had a stronger inhibitory effect on the outward

SMILES: CC(C)n1c(/C=C/C(O)CC(O)CC(=O)O)c(-c2ccc(F)cc2)c2ccccc21 (centres unmarked) [fluvastatin]
% inhibition at 1 mM ([4]; inhibition of inward current only): one (fluvastatin) had no effect on the outward current, but inhibited the inward current efficaciously

inhibition at 1000 µM [2, 8]: 60.3 ± 4.3%
SMILES: CN(C)CCOC(c1ccccc1)c1ccccc1 [DPH, diphenhydramine]
